Laboratory results: article PMC9170106, “Pre-clinical evaluation of LASSBio-1491: From in vitro pharmacokinetic study to in vivo leishmanicidal activity” (PLoS ONE, 2022)
“And” between values parts separate entries of the source, which are not always exact repeats. Identical values can stand only once.

Key:
[1] = test system: L. major promastigote 5-ASKH substrain; experiment: In vitro activity against promastigotes, 5-ASKH; format: cell-based, Leishmania major
Experimental: L. major promastigotes LV39 (MRHO/SU/59/P) were obtained from João […] Preto Medical School- USP. L. major IOC/[…] promastigotes (MHOM/SU/1973/5-ASKH) were obtained from Leishmania collection of the Oswaldo Cruz Institute-Fiocruz. L. major promastigotes LV39 (MRHO/SU/59/P) and L. major IOC/[…] (MHOM/SU/1973/5-ASKH) were grown in a Schneider's medium (Sigma-Aldrich, St. […] The determination of the leishmanicidal activity of LASSBio-1491 against L. major promastigotes was carried out according to the methodology described by […] and colleagues (1996). […] After 48h of incubation in a Biochemical Oxygen Demand (B.O.D.) incubator, the promastigotes were counted using a hemocytometer. The results obtained were expressed as the mean ± S.E.M. of the number of promastigotes from triplicate cultures of representative assays, with the data analyzed by ANOVA and Dunnett hoc tests, considering a significance level of p < 0.05.

[2] = Plasma stability; format: in vitro ADME, rat
Experimental: For analysis of plasma stability, the LASSBio-1491 in a final concentration of 5 μM from stock solution of 1 mM, was added in 50 μL of rat plasma solution diluted in 250 μL with PBS (pH 7.4) and was placed in a shaker at 37 °C under vigorous stirring for 0, 30, 60, 120 and 240 minutes. After each reaction time, 500 μL of cold methanol and 500 μL of cold acetonitrile containing 5 uM of methyl 1,1’biphenyl-4-carboxylate 5 μM (internal standard) were added to the wells to stop the reaction. The solution was mixed and centrifuged at 24500 x g for 15 min (Universal centrifuge 320R Hettich®). The supernatant (1 mL) was filtrated and placed in vials to be analyzed by HPLC-PDA, Shimadzu—LC20AD, Kromasil C-18 column (4.6 mm x 250 mm, 5 μm), SPD M20A diode array detector, flow 1 mL/min, mobile phase acetonitrile: water 1:1 (v/v) for LASSBio-1491 and acetonitrile: water 60:40 (v/v) for LASSBio-1736, for 20 minutes at 254 nm wavelength.

[3] = test system: L. major amasitigote 5-ASKH substrain; experiment: In vitro activity against intramacrophage amastigotes, 5-ASKH; format: cell-based; settings: Leishmania major
Experimental: (§1) Briefly, female BALB/c mice (6 to 8 weeks old) received 1 mL sterile of 3% sodium thioglycolate by intraperitoneal route (i.p.) and were euthanized after 4 days. The intraperitoneal lavage was collected from the peritoneal cavity of mice using sterile PBS and cells were counted in a hemocytometer. Peritoneal adherent cells (macrophages) were plated at a concentration of 2 x 10^5 cells per well in 24-well culture plates containing glass coverslips. Subsequently, L. major promastigotes (harvested after the third passage) were added at a concentration of 2 x 10^6 parasites per well, aiming to infect the macrophages. […] After 24 hours in an incubator at 37 °C and 5% CO2, the coverslips were washed with PBS and stained with Giemsa-May Grünwald. The number of amastigotes in 100 macrophages was determined by counting using optical microscope (100x objective). Furthermore, the cell culture supernatant was also collected for nitrite measurement using the Griess reaction, an indirect way of determining the concentration of nitric oxide in the supernatant of infected macrophages from the experimental groups. The results obtained were expressed as the mean ± S.E.M. of the number of amastigotes or nitrite concentration from duplicate cultures of representative assays, with the data analyzed by ANOVA and Dunnett hoc tests, considering a significance level of p < 0.05. In addition, the linear regression analysis from the Kc values at employed concentrations was used to determine the IC50.

[4] = test system: peritoneal macrophages infected with L. major LV39; experiment: Nitrite measurement (Griess reaction) in infected macrophages; format: cell-based, BALB/c mice; settings: BALB/c macrophages infected with L. major LV39
Experimental: as §1, with “In addition, the linear regression analysis from the Kc values at employed concentrations was used to determine the IC50.” left out

[5] = Aqueous solubility by UV spectroscopy; format: physicochemical; settings: phosphate buffer solution, buffer solution pH 7.4, 37 °C
Experimental: The solubility assay was carried out by correlating the concentration with the absorbance obtained by ultraviolet. First, a stock solution of the compound was prepared by dissolving 1 mg in 20 mL of methanol, and then the wavelength of greatest absorption of each compound was obtained by scanning between wavelengths from 200 nm to 500 nm. From the stock solution, six dilutions were prepared (dilution factor: 2.5), and the absorbance reading was performed in quartz cuvettes (10 mm optical path) in the UV-VIS spectrophotometer (Femto 800XI) at the previously determined wavelength. With the values obtained, a calibration curve with linear regression was made, in which the linearity of the analytical method is observed, with values of correlation coefficient (p > 0.95).
The compound was dissolved in a phosphate buffer solution (pH 7.4), prepared according to the Brazilian Pharmacopoeia (Vol.1) to obtain a supersaturated solution. The supersaturated aqueous solution was kept under stirring for 4 hours at 37°C and then the sample was filtered on a 0.45 μm filter to carry out the reading at the corresponding wavelength of the compound. The solubility was then determined through the equation of the straight line obtained by the linear regression of the calibration curve of each compound [19].

[6] = test system: L. major LV39; experiment: In vivo activity against Leishmania major LV39 substrain; set-up: species or system BALB/c mice
Experimental: Thus, 6-week-old female BALB/c mice weighing approximately 20 g were used. […] Briefly, ketamine (80mg/kg) and xylazine (8 mg/kg) were simultaneously used to anesthetize the mice by intraperitoneal injection. The promastigotes of L. major LV39 substrain in the stationary phase, harvested after the third passage (obtained from parasites frozen), were inoculated subcutaneously at a concentration of 1x 10^5 parasites in the right ear of mice. […] The size of the lesions was measured using a pachymeter. Thiopental (150 mg/kg, i.p.) was used to euthanize the mice and the quantitative limiting-dilution assay was used to determine the parasite burden of infected ears and draining lymph nodes. The results obtained from experiments were expressed as the mean ± S.E.M. with the data analyzed (size of the lesions or parasite burden) by ANOVA and Dunnett hoc tests, considering a significance level of p < 0.05.

[7] = Microsomal metabolism; format: in vitro ADME; settings: rat liver microsomes, without NADPH regenerating system
[8] = LASSBio-1491 10 μmol/Kg/day, glucantime 30 μmol/Kg/day x 28 days, i.p.

For `O=C(N/N=C/c1ccc([N+](=O)[O-])o1)NNC(=O)c1ccc(Cl)cc1` [LASSBio-1491], which “times less potent than pentamidine” value [1] is on record?
The value was “about 10 times”.

And the IC50 ([1]; Leishmania major, 48 h)?
The IC50 was 7.5 ± 0.3 µM.

And the Emax ([1]; Leishmania major, read-out: Maximum effect (% ± S.E.M.))?
The Emax was 68.4 ± 0.1%.

And the “Elimination rate constant (k)” value ([2]; rat plasma)?
Its value is 0.0006.

What about the t1/2 ([2]; rat plasma) of the same compound?
The t1/2 was 19.25 h.

What about the Metabolism rate ([2]; rat plasma, 5 μM, 37 °C, up to 240 min) of the same compound?
The Metabolism rate was 15.11%.

And the half-life at 5 μM ([2]; rat, rat plasma diluted with PBS, pH 7.4, rat plasma)?
Its half-life at 5 μM is 28.9 h.

And the recovery at 5 μM ([2]; rat, rat plasma diluted with PBS, pH 7.4, read-out: Recovery rate)?
Its recovery at 5 μM is 88.5%.

And the IC50 ([3]; Macrophage, amastigote 5-ASKH in macrophages, 24 h)?
The IC50 was 7.3 ± 0.6 µM.

What about the Emax ([3]; amastigote 5-ASKH, read-out: Maximum effect (% ± S.E.M.)) of the same compound?
Its Emax is 67.5 ± 4.8%.

And the “NO production (nitrite)” value [4]?
The value was “increased NO production”.

And the solubility at 4 h [5]?
The solubility at 4 h was 8.72 µM and 3.06 µg/mL.

And the lesion size [6, 8]?
Its lesion size is “reduced lesion size only between days 7 and 17”.

And the “parasite load in draining lymph node” value [6, 8]?
Its value is “decreased parasite load”.

What about the “parasite load in infected ear” value [6, 8] of the same compound?
Its value is “decreased parasite load”.

What about the “times more efficient than glucantime” value ([6]; similar effect at a dose three times lower) of the same compound?
Its value is 3 times.

And the “Metabolism rate non co-factor” value [7]?
Its value is 10.87%.
